Test results from patent publication US9493537B2, “Compounds with reduced ring size for use in diagnosing and treating melanoma, including metastatic melanoma and methods related to same” (STC.UNM, priority 2009, dated 2016).
Read-outs that look alike come from different tables or passages of the source.

Assay: Biodistribution in B16/F1 melanoma-bearing C57 mice
Type: in vivo
Conditions: female, C57, mouse, iv, total radioactivity; for tissue uptake at 2 h / tissue uptake dose at 2 h: 2 h post-injection
Description: All the animal studies were conducted in compliance with Institutional Animal Care and Use Committee approval. The mice were housed five animals per cage in sterile micro-isolator cages in a temperature- and humidity-controlled room with a 12-h light/12-h dark schedule. […] C57 mice were subcutaneously inoculated on the right flank with 1×10^6 B16/F1 cells. The weight of tumors reached approximately 0.2 g 10 days post cell inoculation. […] Groups of 5 mice were sacrificed at 0.5, 2, 4 and 24 h post-injection, and tumors and organs of interest were harvested, weighed and counted. Blood values were taken as 6.5% of the whole-body weight. […] The mice were sacrificed at 2 h post-injection. The tumor and organs of interest were harvested, weighed and counted.
All animal studies were conducted in compliance with Institutional Animal Care and Use Committee approval. The pharmacokinetics of ^111In-DOTA-GGNle-CycMSHhex and ^111In-DOTA-GENle-CycMSHhex were determined in B16/F1 melanoma-bearing C57 female mice (Harlan, Indianapolis, Ind.). The C57 mice were subcutaneously inoculated with 1×10^6 B16/F1 cells on the right flank for each mouse to generate B16/F1 melanomas. Ten days post inoculation, the tumor weights reached approximately 0.2 g. Each melanoma-bearing mouse was injected with 0.037 MBq of ^111In-DOTA-GGNle-CycMSHhex or ^111In-DOTA-GENle-CycMSHhex via the tail vein. Groups of 5 mice were sacrificed at 0.5, 2, 4 and 24 h post-injection, and tumors and organs of interest were harvested, weighed and counted. Blood values were taken as 6.5% of the whole-body weight. The specificities of the tumor uptake of ^111In-DOTA-GGNle-CycMSHhex and ^111In-DOTA-GENle-CycMSHhex were determined by co-injecting 10 μg (6.07 nmol) of unlabeled NDP-MSH which is a linear α-MSH peptide analogue with picomolar MC1 receptor binding affinity.

tissue uptake at 0.5 h (blood, 0.037 MBq, 0.5 h post-injection, read-out: Blood uptake): 3.33 ± 0.35 %ID/g | tissue uptake at 2 h (blood, 0.037 MBq, read-out: Blood uptake): 0.11 ± 0.07 %ID/g | tissue uptake at 4 h (blood, 0.037 MBq, 4 h post-injection, read-out: Blood uptake): 0.05 ± 0.02 %ID/g | tissue uptake at 24 h (blood, 0.037 MBq, 24 h post-injection, read-out: Blood uptake): 0.02 ± 0.01 %ID/g | tissue uptake at 2 h (blood, L-lysine co-injection, read-out: Blood uptake): 0.92 ± 0.48 %ID/g | tissue uptake at 2 h (blood, NDP blockade, read-out: Blood uptake): 0.07 ± 0.05 %ID/g | tissue uptake at 0.5 h (bone, 0.037 MBq, 0.5 h post-injection, read-out: Bone uptake): 1.34 ± 0.4 %ID/g | tissue uptake at 2 h (bone, 0.037 MBq, read-out: Bone uptake): 0.18 ± 0.1 %ID/g | tissue uptake at 4 h (bone, 0.037 MBq, 4 h post-injection, read-out: Bone uptake): 0.22 ± 0.15 %ID/g | tissue uptake at 24 h (bone, 0.037 MBq, 24 h post-injection, read-out: Bone uptake): 0.16 ± 0.03 %ID/g | tissue uptake at 2 h (bone, L-lysine co-injection, read-out: Bone uptake): 0.55 ± 0.14 %ID/g | tissue uptake at 2 h (bone, NDP blockade, read-out: Bone uptake): 0.05 ± 0.04 %ID/g | tissue uptake at 0.5 h (brain, 0.037 MBq, 0.5 h post-injection, read-out: Brain uptake): 0.21 ± 0.07 %ID/g | tissue uptake at 2 h (brain, 0.037 MBq, read-out: Brain uptake): 0.02 ± 0.01 %ID/g | tissue uptake at 4 h (brain, 0.037 MBq, 4 h post-injection, read-out: Brain uptake): 0.06 ± 0.03 %ID/g | tissue uptake at 24 h (brain, 0.037 MBq, 24 h post-injection, read-out: Brain uptake): 0.03 ± 0.01 %ID/g | tissue uptake at 2 h (brain, L-lysine co-injection, read-out: Brain uptake): 0.04 ± 0.01 %ID/g | tissue uptake at 2 h (brain, NDP blockade, read-out: Brain uptake): 0.01 ± 0.01 %ID/g | tissue uptake at 0.5 h (heart, 0.037 MBq, 0.5 h post-injection, read-out: Heart uptake): 1.24 ± 0.15 %ID/g | tissue uptake at 2 h (heart, 0.037 MBq, read-out: Heart uptake): 0.16 ± 0.1 %ID/g | tissue uptake at 4 h (heart, 0.037 MBq, 4 h post-injection, read-out: Heart uptake): 0.12 ± 0.03 %ID/g | tissue uptake at 24 h (heart, 0.037 MBq, 24 h post-injection, read-out: Heart uptake): 0.07 ± 0.05 %ID/g | tissue uptake at 2 h (heart, L-lysine co-injection, read-out: Heart uptake): 0.37 ± 0.02 %ID/g | tissue uptake at 2 h (heart, NDP blockade, read-out: Heart uptake): 0.06 ± 0.02 %ID/g | tissue uptake dose at 0.5 h (intestines, 0.037 MBq, 0.5 h post-injection, read-out: Intestines, percent injected dose): 2.16 ± 0.28 %ID | tissue uptake dose at 2 h (intestines, 0.037 MBq, read-out: Intestines, percent injected dose): 1.4 ± 0.56 %ID | tissue uptake dose at 4 h (intestines, 0.037 MBq, 4 h post-injection, read-out: Intestines, percent injected dose): 3.03 ± 1.06 %ID | tissue uptake dose at 24 h (intestines, 0.037 MBq, 24 h post-injection, read-out: Intestines, percent injected dose): 1.41 ± 0.86 %ID | tissue uptake dose at 2 h (intestines, L-lysine co-injection, read-out: Intestines, percent injected dose): 1.85 ± 0.73 %ID | tissue uptake dose at 2 h (intestines, NDP blockade, read-out: Intestines, percent injected dose): 1.14 ± 0.47 %ID | tissue uptake at 0.5 h (kidneys, 0.037 MBq, 0.5 h post-injection, read-out: Kidneys uptake): 16.2 ± 4.32 %ID/g | tissue uptake at 2 h (kidneys, 0.037 MBq, read-out: Kidneys uptake): 9.52 ± 0.44 %ID/g | tissue uptake at 4 h (kidneys, 0.037 MBq, 4 h post-injection, read-out: Kidneys uptake): 9.99 ± 1.39 %ID/g | tissue uptake at 24 h (kidneys, 0.037 MBq, 24 h post-injection, read-out: Kidneys uptake): 9.31 ± 0.91 %ID/g | tissue uptake at 2 h (kidneys, L-lysine co-injection, read-out: Kidneys uptake): 6.66 ± 0.62 %ID/g | tissue uptake at 2 h (kidneys, NDP blockade, read-out: Kidneys uptake): 11.6 ± 0.56 %ID/g | tissue uptake at 0.5 h (liver, 0.037 MBq, 0.5 h post-injection, read-out: Liver uptake): 2.75 ± 0.26 %ID/g | tissue uptake at 2 h (liver, 0.037 MBq, read-out: Liver uptake): 1.46 ± 0.2 %ID/g | tissue uptake at 4 h (liver, 0.037 MBq, 4 h post-injection, read-out: Liver uptake): 1.72 ± 0.07 %ID/g | tissue uptake at 24 h (liver, 0.037 MBq, 24 h post-injection, read-out: Liver uptake): 1.89 ± 0.14 %ID/g | tissue uptake at 2 h (liver, L-lysine co-injection, read-out: Liver uptake): 1.42 ± 0.3 %ID/g | tissue uptake at 2 h (liver, NDP blockade, read-out: Liver uptake): 1.46 ± 0.08 %ID/g | tissue uptake at 0.5 h (lung, 0.037 MBq, 0.5 h post-injection, read-out: Lung uptake): 2.45 ± 0.83 %ID/g | tissue uptake at 2 h (lung, 0.037 MBq, read-out: Lung uptake): 0.32 ± 0.1 %ID/g | tissue uptake at 4 h (lung, 0.037 MBq, 4 h post-injection, read-out: Lung uptake): 0.1 ± 0.05 %ID/g | tissue uptake at 24 h (lung, 0.037 MBq, 24 h post-injection, read-out: Lung uptake): 0.1 ± 0.03 %ID/g | tissue uptake at 2 h (lung, L-lysine co-injection, read-out: Lung uptake): 0.75 ± 0.21 %ID/g | tissue uptake at 2 h (lung, NDP blockade, read-out: Lung uptake): 0.3 ± 0.06 %ID/g | tissue uptake at 0.5 h (muscle, 0.037 MBq, 0.5 h post-injection, read-out: Muscle uptake): 0.6 ± 0.22 %ID/g | tissue uptake at 2 h (muscle, 0.037 MBq, read-out: Muscle uptake): 0.15 ± 0.08 %ID/g | tissue uptake at 4 h (muscle, 0.037 MBq, 4 h post-injection, read-out: Muscle uptake): 0.1 ± 0.08 %ID/g
Compound: CCCC[C@H](NC(=O)CN1CCN(CC(=O)O)CCN(CC(=O)O)CCN(CC(=O)O)CC1)C(=O)N[C@H]1CC(=O)NCCCC[C@@H](C(N)=O)NC(=O)[C@H](Cc2c[nH]c3ccccc23)NC(=O)[C@H](CCCNC(=N)N)NC(=O)[C@@H](Cc2ccccc2)NC(=O)[C@H](Cc2c[nH]cn2)NC1=O [^111In-DOTA-Nle-CycMSHhex, metal not drawn]
